Laboratory results taken from US5168100A, “HP530 compounds and process for preparing the same” (Sapporo Breweries Limited, priority 1990, dated 1992).
≈ marks a conversion by molar mass, not a printed value.

Test system: Proteus vulgaris JCM1668
Test: Antimicrobial activity (MIC), Proteus vulgaris
Assay type: cell-based
Conditions: not given
Source text: (§1) The minimum inhibitory concentrations (MIC's) of the HP530 compounds and their derivatives of the invention against bacteria and fungi are shown in Table 2.
With CC(=O)OC1C(C)OC(c2ccc3c(c2O)C(=O)c2c(cc(C)c4c(=O)cc(C5(C)OC5C)oc24)C3=O)CC1(C)N(C)C (stereo not drawn) [HP530E] the MIC was over 100 µg/mL.
CC=C(C)c1cc(=O)c2c(C)cc3c(c2o1)C(=O)c1c(ccc(C2CC(C)(N(C)C)C(OC(C)=O)C(C)O2)c1O)C3=O (stereo not drawn) [HP530G] showed an MIC of over 100 µg/mL.

Test system: Bacillus subtilis H17Rec^+
Test: Antimicrobial activity (MIC), Bacillus subtilis H17Rec^+
Assay type: cell-based
Conditions: not given
Source text: as §1
For CC(=O)OC1C(C)OC(c2ccc3c(c2O)C(=O)c2c(cc(C)c4c(=O)cc(C5(C)OC5C)oc24)C3=O)CC1(C)N(C)C (stereo not drawn) [HP530E], the MIC was 12.5 µg/mL (≈ 21.2 µM).
In the case of CC=C(C)c1cc(=O)c2c(C)cc3c(c2o1)C(=O)c1c(ccc(C2CC(C)(N(C)C)C(OC(C)=O)C(C)O2)c1O)C3=O (stereo not drawn) [HP530G], the MIC is reported as 100 µg/mL (≈ 174 µM).

Test system: Saccharomyces cerevisiae JCM1499
Test: Antimicrobial activity (MIC), Saccharomyces cerevisiae
Assay type: cell-based
Conditions: not given
Source text: as §1
Work on CC(=O)OC1C(C)OC(c2ccc3c(c2O)C(=O)c2c(cc(C)c4c(=O)cc(C5(C)OC5C)oc24)C3=O)CC1(C)N(C)C (stereo not drawn) [HP530E] yielded an MIC of over 100 µg/mL.
With CC=C(C)c1cc(=O)c2c(C)cc3c(c2o1)C(=O)c1c(ccc(C2CC(C)(N(C)C)C(OC(C)=O)C(C)O2)c1O)C3=O (stereo not drawn) [HP530G] the MIC was over 100 µg/mL.

Test system: Xanthomonas maltophilia JCM1975
Test: Antimicrobial activity (MIC), Xanthomonas maltophilia
Assay type: cell-based
Conditions: Stenotrophomonas maltophilia
Source text: as §1
For CC(=O)OC1C(C)OC(c2ccc3c(c2O)C(=O)c2c(cc(C)c4c(=O)cc(C5(C)OC5C)oc24)C3=O)CC1(C)N(C)C (stereo not drawn) [HP530E], the MIC was over 100 µg/mL.
Molecule CC=C(C)c1cc(=O)c2c(C)cc3c(c2o1)C(=O)c1c(ccc(C2CC(C)(N(C)C)C(OC(C)=O)C(C)O2)c1O)C3=O (stereo not drawn) [HP530G] has an MIC of over 100 µg/mL.

Test system: not listed separately
Test: Solubility
Conditions: ethyl acetate, acetone, n-hexane
For CC(=O)OC1C(C)OC(c2ccc3c(c2O)C(=O)c2c(cc(C)c4c(=O)cc(C5(C)OC5C)oc24)C3=O)CC1(C)N(C)C (stereo not drawn) [HP530E], the Solubility was “hardly soluble in ethyl acetate, acetone and n-hexane”.
With CC=C(C)c1cc(=O)c2c(C)cc3c(c2o1)C(=O)c1c(ccc(C2CC(C)(N(C)C)C(OC(C)=O)C(C)O2)c1O)C3=O (stereo not drawn) [HP530G] the Solubility was “hardly soluble in ethyl acetate, acetone and n-hexane”.

Same assay, conditions: solvents in which soluble (acidic water, organic solvents)
In the case of CC(=O)OC1C(C)OC(c2ccc3c(c2O)C(=O)c2c(cc(C)c4c(=O)cc(C5(C)OC5C)oc24)C3=O)CC1(C)N(C)C (stereo not drawn) [HP530E], the Solubility is reported as “Soluble in acidic water, methanol, chloroform and benzene”.
With CC=C(C)c1cc(=O)c2c(C)cc3c(c2o1)C(=O)c1c(ccc(C2CC(C)(N(C)C)C(OC(C)=O)C(C)O2)c1O)C3=O (stereo not drawn) [HP530G] the Solubility was “Soluble in acidic water, methanol, chloroform and benzene”.

Same assay, conditions: water
For CC(=O)OC1C(C)OC(c2ccc3c(c2O)C(=O)c2c(cc(C)c4c(=O)cc(C5(C)OC5C)oc24)C3=O)CC1(C)N(C)C (stereo not drawn) [HP530E], the Solubility was “insoluble in water”.
In the case of CC=C(C)c1cc(=O)c2c(C)cc3c(c2o1)C(=O)c1c(ccc(C2CC(C)(N(C)C)C(OC(C)=O)C(C)O2)c1O)C3=O (stereo not drawn) [HP530G], the Solubility is reported as “insoluble in water”.

Test system: mouse fibrosarcoma Meth-A cell line
Test: Antitumor activity, increase in life span of CDF1 mice inoculated with Meth-A cells
Assay type: in vivo
Conditions: 2.5 mg/kg i.p. once a day, day 1-4
Source text: 1) CDF1 mice were inoculated intraperitoneally with 1×10^6 cells of mouse fibrosarcoma Meth-A cell line on day 0. HP530 compounds and their derivatives dissolved in a physiological salt solution were administrated intraperitoneally once a day on day 1-4. Increase in life span is represented by the percentage of the ratio of the mean number of surviving days (T) of the treated groups of mice to the mean number of surviving days (C) of the untreated groups of mice.
In the case of CC(=O)OC1C(C)OC(c2ccc3c(c2O)C(=O)c2c(cc(C)c4c(=O)cc(C5(C)OC5C)oc24)C3=O)CC1(C)N(C)C (stereo not drawn) [HP530E], the “Antitumor Activity T/C” value is reported as 104%.
For CC=C(C)c1cc(=O)c2c(C)cc3c(c2o1)C(=O)c1c(ccc(C2CC(C)(N(C)C)C(OC(C)=O)C(C)O2)c1O)C3=O (stereo not drawn) [HP530G], the “Antitumor Activity T/C” value was 112%.

Same assay, conditions: 5.0 mg/kg i.p. once a day, day 1-4
In the case of CC(=O)OC1C(C)OC(c2ccc3c(c2O)C(=O)c2c(cc(C)c4c(=O)cc(C5(C)OC5C)oc24)C3=O)CC1(C)N(C)C (stereo not drawn) [HP530E], the “Antitumor Activity T/C” value is reported as 127%.
In the case of CC=C(C)c1cc(=O)c2c(C)cc3c(c2o1)C(=O)c1c(ccc(C2CC(C)(N(C)C)C(OC(C)=O)C(C)O2)c1O)C3=O (stereo not drawn) [HP530G], the “Antitumor Activity T/C” value is reported as 123%.

Same assay, conditions: 10.0 mg/kg i.p. once a day, day 1-4
For CC(=O)OC1C(C)OC(c2ccc3c(c2O)C(=O)c2c(cc(C)c4c(=O)cc(C5(C)OC5C)oc24)C3=O)CC1(C)N(C)C (stereo not drawn) [HP530E], the “Antitumor Activity T/C” value was over 196%.
With CC=C(C)c1cc(=O)c2c(C)cc3c(c2o1)C(=O)c1c(ccc(C2CC(C)(N(C)C)C(OC(C)=O)C(C)O2)c1O)C3=O (stereo not drawn) [HP530G] the “Antitumor Activity T/C” value was 115%.

Same assay, conditions: 20.0 mg/kg i.p. once a day, day 1-4
For CC(=O)OC1C(C)OC(c2ccc3c(c2O)C(=O)c2c(cc(C)c4c(=O)cc(C5(C)OC5C)oc24)C3=O)CC1(C)N(C)C (stereo not drawn) [HP530E], the “Antitumor Activity T/C” value was over 192%.
With CC=C(C)c1cc(=O)c2c(C)cc3c(c2o1)C(=O)c1c(ccc(C2CC(C)(N(C)C)C(OC(C)=O)C(C)O2)c1O)C3=O (stereo not drawn) [HP530G] the “Antitumor Activity T/C” value was 123%.

Test system: CDF1 mice
Test: Acute toxicity in CDF1 mice
Assay type: in vivo, mouse
Conditions: 20 mg/kg, intraperitoneal, three CDF1 mice
With CC(=O)OC1C(C)OC(c2ccc3c(c2O)C(=O)c2c(cc(C)c4c(=O)cc(C5(C)OC5C)oc24)C3=O)CC1(C)N(C)C (stereo not drawn) [HP530E] the Acute toxicity was “no toxicity”.
In the case of CC=C(C)c1cc(=O)c2c(C)cc3c(c2o1)C(=O)c1c(ccc(C2CC(C)(N(C)C)C(OC(C)=O)C(C)O2)c1O)C3=O (stereo not drawn) [HP530G], the Acute toxicity is reported as “no toxicity”.

Test system: Salmonella typhimurium TA1535
Test: Antimicrobial activity (MIC), Salmonella typhimurium
Assay type: cell-based
Conditions: Salmonella enterica
Source text: as §1
Work on CC(=O)OC1C(C)OC(c2ccc3c(c2O)C(=O)c2c(cc(C)c4c(=O)cc(C5(C)OC5C)oc24)C3=O)CC1(C)N(C)C (stereo not drawn) [HP530E] yielded an MIC of 0.8 µg/mL (≈ 1.36 µM).
CC=C(C)c1cc(=O)c2c(C)cc3c(c2o1)C(=O)c1c(ccc(C2CC(C)(N(C)C)C(OC(C)=O)C(C)O2)c1O)C3=O (stereo not drawn) [HP530G] showed an MIC of 100 µg/mL (≈ 174 µM).

Test system: W98 cell line
Test: Cytotoxicity (IC100) against W98 cell line
Assay type: cell-based
Conditions: Homo sapiens; W98 cells, final 10% methanol solutions; read-out: IC100 (100% growth inhibiting concentration)
Description: 2) Cytotoxicity (IC100) against W98 cell line obtained by converting the lung cells of a human emryo by an SV40 virus was examined in the following way. When the HP530 compounds and their derivatives dissolved in methanol were added to culture solutions in such a manner that the culture solutions were prepared final 10% methanol solutions, the cytotoxicity of the HP530 compounds and their derivatives against the growth of the W98 cells in the culture solution was measured as 100% growth inhibiting concentration (IC100).
CC(=O)OC1C(C)OC(c2ccc3c(c2O)C(=O)c2c(cc(C)c4c(=O)cc(C5(C)OC5C)oc24)C3=O)CC1(C)N(C)C (stereo not drawn) [HP530E] gave an IC100 of 0.0006 µg/mL.
CC=C(C)c1cc(=O)c2c(C)cc3c(c2o1)C(=O)c1c(ccc(C2CC(C)(N(C)C)C(OC(C)=O)C(C)O2)c1O)C3=O (stereo not drawn) [HP530G] showed an IC100 of 0.1 µg/mL.

Test system: Micrococcus luteus JCM1464
Test: Antimicrobial activity (MIC), Micrococcus luteus
Assay type: cell-based
Conditions: not given
Source text: as §1
For CC(=O)OC1C(C)OC(c2ccc3c(c2O)C(=O)c2c(cc(C)c4c(=O)cc(C5(C)OC5C)oc24)C3=O)CC1(C)N(C)C (stereo not drawn) [HP530E], the MIC was 0.8 µg/mL (≈ 1.36 µM).
With CC=C(C)c1cc(=O)c2c(C)cc3c(c2o1)C(=O)c1c(ccc(C2CC(C)(N(C)C)C(OC(C)=O)C(C)O2)c1O)C3=O (stereo not drawn) [HP530G] the MIC was 12.5 µg/mL (≈ 21.8 µM).

Test system: Staphylococcus epidermidis JCM2414
Test: Antimicrobial activity (MIC), Staphylococcus epidermidis
Assay type: cell-based
Conditions: not given
Source text: as §1
With CC(=O)OC1C(C)OC(c2ccc3c(c2O)C(=O)c2c(cc(C)c4c(=O)cc(C5(C)OC5C)oc24)C3=O)CC1(C)N(C)C (stereo not drawn) [HP530E] the MIC was over 100 µg/mL.
Molecule CC=C(C)c1cc(=O)c2c(C)cc3c(c2o1)C(=O)c1c(ccc(C2CC(C)(N(C)C)C(OC(C)=O)C(C)O2)c1O)C3=O (stereo not drawn) [HP530G] has an MIC of 25 µg/mL (≈ 43.6 µM).

Test system: Klebsiella pneumoniae JCM1662
Test: Antimicrobial activity (MIC), Klebsiella pneumoniae
Assay type: cell-based
Conditions: not given
Source text: as §1
Molecule CC(=O)OC1C(C)OC(c2ccc3c(c2O)C(=O)c2c(cc(C)c4c(=O)cc(C5(C)OC5C)oc24)C3=O)CC1(C)N(C)C (stereo not drawn) [HP530E] has an MIC of over 100 µg/mL.
Work on CC=C(C)c1cc(=O)c2c(C)cc3c(c2o1)C(=O)c1c(ccc(C2CC(C)(N(C)C)C(OC(C)=O)C(C)O2)c1O)C3=O (stereo not drawn) [HP530G] yielded an MIC of over 100 µg/mL.

Test system: Bacillus subtilis M45Rec^-
Test: Antimicrobial activity (MIC), Bacillus subtilis M45Rec^-
Assay type: cell-based
Conditions: not given
Source text: as §1
CC(=O)OC1C(C)OC(c2ccc3c(c2O)C(=O)c2c(cc(C)c4c(=O)cc(C5(C)OC5C)oc24)C3=O)CC1(C)N(C)C (stereo not drawn) [HP530E] showed an MIC of 0.2 µg/mL (≈ 0.339 µM).
In the case of CC=C(C)c1cc(=O)c2c(C)cc3c(c2o1)C(=O)c1c(ccc(C2CC(C)(N(C)C)C(OC(C)=O)C(C)O2)c1O)C3=O (stereo not drawn) [HP530G], the MIC is reported as 3.2 µg/mL (≈ 5.58 µM).

Test system: Escherichia coli JCM1649
Test: Antimicrobial activity (MIC), Escherichia coli
Assay type: cell-based
Conditions: not given
Source text: as §1
In the case of CC(=O)OC1C(C)OC(c2ccc3c(c2O)C(=O)c2c(cc(C)c4c(=O)cc(C5(C)OC5C)oc24)C3=O)CC1(C)N(C)C (stereo not drawn) [HP530E], the MIC is reported as over 100 µg/mL.
With CC=C(C)c1cc(=O)c2c(C)cc3c(c2o1)C(=O)c1c(ccc(C2CC(C)(N(C)C)C(OC(C)=O)C(C)O2)c1O)C3=O (stereo not drawn) [HP530G] the MIC was over 100 µg/mL.

Test system: Candida albicans JCM1542
Test: Antimicrobial activity (MIC), Candida albicans
Assay type: cell-based
Conditions: not given
Source text: as §1
Work on CC(=O)OC1C(C)OC(c2ccc3c(c2O)C(=O)c2c(cc(C)c4c(=O)cc(C5(C)OC5C)oc24)C3=O)CC1(C)N(C)C (stereo not drawn) [HP530E] yielded an MIC of over 100 µg/mL.
Work on CC=C(C)c1cc(=O)c2c(C)cc3c(c2o1)C(=O)c1c(ccc(C2CC(C)(N(C)C)C(OC(C)=O)C(C)O2)c1O)C3=O (stereo not drawn) [HP530G] yielded an MIC of over 100 µg/mL.

Test system: Staphylococcus aureus JCM2151
Test: Antimicrobial activity (MIC), Staphylococcus aureus
Assay type: cell-based
Conditions: not given
Source text: as §1
CC(=O)OC1C(C)OC(c2ccc3c(c2O)C(=O)c2c(cc(C)c4c(=O)cc(C5(C)OC5C)oc24)C3=O)CC1(C)N(C)C (stereo not drawn) [HP530E] gave an MIC of 6.3 µg/mL (≈ 10.7 µM).
Molecule CC=C(C)c1cc(=O)c2c(C)cc3c(c2o1)C(=O)c1c(ccc(C2CC(C)(N(C)C)C(OC(C)=O)C(C)O2)c1O)C3=O (stereo not drawn) [HP530G] has an MIC of 50 µg/mL (≈ 87.2 µM).
